In brackets after ≈: the same amount, converted by molar mass. Entries after “also recorded” stand apart in the source; their conditions may differ.
Legend:
mCCR9 = target: T1, mCCR9 (Mus musculus, UniProt Q9WUT7); experiment: Chemotaxis of mouse thymocytes to mCCL25; assay type: cell-based; conditions: in serum; unit inferred
T1 construct: endogenous in cells; host or cells: mouse thymocytes (from the earlier reading's assay name)
T1 sequence (Q9WUT7 1-369): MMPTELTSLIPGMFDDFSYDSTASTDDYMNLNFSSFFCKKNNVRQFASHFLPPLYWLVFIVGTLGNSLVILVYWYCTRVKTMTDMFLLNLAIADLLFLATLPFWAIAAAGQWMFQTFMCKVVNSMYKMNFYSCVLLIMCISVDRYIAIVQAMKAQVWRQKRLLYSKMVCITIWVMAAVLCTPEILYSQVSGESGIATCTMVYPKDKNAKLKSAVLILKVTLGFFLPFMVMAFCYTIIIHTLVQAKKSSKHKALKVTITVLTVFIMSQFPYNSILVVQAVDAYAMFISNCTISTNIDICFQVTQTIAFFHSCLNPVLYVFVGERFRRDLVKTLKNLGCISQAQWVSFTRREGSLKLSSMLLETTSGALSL

mCCR6 = target: T2, mCCR6 (Mus musculus, UniProt O54689); experiment: In vitro inhibition of chemotaxis, mCCR6-transfected BaF3 cells to mCCL20; assay type: cell-based; conditions: in 100% serum
T2 construct: expressed in transfected cells; host or cells: BaF3 cells
T2 sequence (O54689 1-367): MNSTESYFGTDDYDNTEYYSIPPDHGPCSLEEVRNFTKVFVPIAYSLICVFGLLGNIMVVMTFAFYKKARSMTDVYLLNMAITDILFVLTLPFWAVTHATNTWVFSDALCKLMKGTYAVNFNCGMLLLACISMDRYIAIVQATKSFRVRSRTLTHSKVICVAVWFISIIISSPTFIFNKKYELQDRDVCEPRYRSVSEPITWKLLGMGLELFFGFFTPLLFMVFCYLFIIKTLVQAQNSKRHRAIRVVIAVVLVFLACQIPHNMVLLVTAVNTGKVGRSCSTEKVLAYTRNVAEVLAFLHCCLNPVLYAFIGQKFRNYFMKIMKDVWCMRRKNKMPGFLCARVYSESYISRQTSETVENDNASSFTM
Experimental: For in vitro determination of chemokine receptor inhibitor activity, Compound 1.136 was dissolved in DMSO to generate a stock concentration of 10 mM that was further diluted in chemotaxis migration buffer (HBSS, 1% BSA, 1% HEPES) to create a 10-point inhibitor gradient ranging from 100 nM-0.01 nM. Migration assay was then run in 100% mouse serum in response to rmCCL20 for CCR6 activity or rmCXCL1 for CXCR2 activity using ChemoTx plates (Neuroprobe, Gaithersburg Md.) and assessed by fluorescence staining of migrated cells with CyQuant (Thermo Fisher).

[1] = system: IL-36α-injected ears of Balb/c mice; experiment: Mouse model of IL-36-induced ear thickening (GPP model); assay type: in vivo
Experimental: For in vivo dosing, mice were dosed subcutaneously with Compound 1.136 once daily (s.c. q.d. in 1% HPMC) at 90 mg/kg unless stated otherwise, starting at day 0 of a study. The in vivo dose was predicted based on in vitro potency and the pharmacokinetic response to a single dose in mice. The minimum antagonist concentration (at trough) to fully cover a gradient-sensing chemoattractant receptor has been determined to correspond with the IC90 concentration (Schall, T. J., and A. E. Proudfoot. 2011. Overcoming hurdles in developing successful drugs targeting chemokine receptors. Nat Rev Immunol 11: 355-363).
Mouse model of IL-36-induced ear thickening. The right ear of 8-week old Balb/c mice received intradermal injections of recombinant murine IL-36α (150 μg per mouse formulated in PBS; BioLegend) every day for 5 days. Intradermal injections of PBS were given to the left ear as a control. Ear thickness was measured prior to start of study and each day thoughout the study using a digital micrometer. The imiquimod model of psoriasiform dermatitis was performed as previously described (Campbell Jet al. J Immunol. 2017; 199(9):3129-36. van der Fits et al. J Immunol 2009; 182(9):5836-45). Briefly, 5% Imiquimod (Fougera®) was applied daily to the shaved and depilated backs of Balb/c mice for up to 4 days. Control mice were treated with an application of Vaseline. Erythema, desquamation, and skin thickening were scored independently on a scale from 0 to 4 where 0=no disease; 1=slight disease; 2=moderate disease; 3=marked disease; 4=very marked disease (Campbell J et al. J Immunol. 2017; 199(9):3129-36. van der Fits et al. J Immunol 2009; 182(9):5836-45). Skin from the backs of mice was excised at the end of the study and processed for flow cytometry analysis,
Mouse anti-IL-17RA. (R&D Systems) was dosed as a positive control at 200-500 μg per mouse, i.p., q.d.

mCCR4 = target: T3, mCCR4 (Mus musculus, UniProt P51680); experiment: Chemotaxis of mCCR4-transfected BaF3 cells to mCCL22; assay type: cell-based; conditions: A2 value, unit not given
T3 construct: expressed in transfected cells; host or cells: BaF3 cells (from the earlier reading's assay name)
T3 sequence (P51680 1-360): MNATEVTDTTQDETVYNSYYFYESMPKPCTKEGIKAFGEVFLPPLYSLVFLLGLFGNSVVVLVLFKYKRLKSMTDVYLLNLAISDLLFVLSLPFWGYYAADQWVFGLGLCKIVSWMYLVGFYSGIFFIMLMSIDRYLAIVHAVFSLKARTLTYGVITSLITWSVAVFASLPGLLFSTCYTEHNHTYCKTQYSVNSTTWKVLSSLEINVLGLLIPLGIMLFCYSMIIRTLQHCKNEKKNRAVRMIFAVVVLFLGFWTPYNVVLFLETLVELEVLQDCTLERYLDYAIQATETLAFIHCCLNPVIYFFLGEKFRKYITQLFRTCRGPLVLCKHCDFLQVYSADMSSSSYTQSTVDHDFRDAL

mCCR2 = target: T4, mCCR2 (Mus musculus, UniProt P51683); experiment: Chemotaxis of mouse bone marrow cells to mCCL2; assay type: cell-based; conditions: in serum; unit inferred
T4 construct: endogenous in cells; host or cells: mouse bone marrow cells (from the earlier reading's assay name)
T4 sequence (P51683 whole entry): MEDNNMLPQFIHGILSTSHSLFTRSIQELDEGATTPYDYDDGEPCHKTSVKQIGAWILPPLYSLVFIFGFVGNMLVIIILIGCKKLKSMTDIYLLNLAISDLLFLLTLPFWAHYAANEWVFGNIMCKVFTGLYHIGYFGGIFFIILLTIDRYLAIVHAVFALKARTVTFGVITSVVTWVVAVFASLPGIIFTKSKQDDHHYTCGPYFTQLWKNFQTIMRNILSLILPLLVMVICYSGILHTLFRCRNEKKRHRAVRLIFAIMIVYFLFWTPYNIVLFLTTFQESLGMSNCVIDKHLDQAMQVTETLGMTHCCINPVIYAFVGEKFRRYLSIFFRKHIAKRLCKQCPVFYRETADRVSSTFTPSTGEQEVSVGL

IC50 (mCCR9): > 10 µM
IC90 (mCCR6; BaF3, read-out: IC90 for CCR6 inhibition): 0.045 µg/mL (≈ 0.102 µM)
IC50 (mCCR6; read-out: IC50 on mouse CCR6, in vitro inhibition of chemotaxis): 10 nM
A2 for chemotaxis of mCCR4-transfected BaF3 cells to mCCL22 in serum (mCCR4): >10,000
IC50 (mCCR2): > 10 µM
SMILES: CCC(C)(C)[C@@H](Nc1c(Nc2c(F)ccc3c2C(=O)N[C@H]3C)c(=O)c1=O)c1ccc(C)o1 [Compound 1.136]
Effectiveness at reducing ear swelling, Compound 1.136 compared with α-IL-17RA ([1]; 90 mg/kg Compound 1.136 vs saturating dose of anti-IL-17RA MAb (500 μg per mouse per day), Mann-Whitney): significantly more effective than α-IL-17RA
Time course of the effect on ear thickness ([1]; Balb/c mice, daily intradermal IL-36α, Compound 1.136 s.c. once daily): appreciable after the second day of treatment
IL-36-induced ear thickening / ear swelling ([1]; Balb/c mice, daily intradermal IL-36α, ear thickness after 4 days, Compound 1.136 30-90 mg/kg s.c. q.d., anti-IL-17RA 200 or 500 μg per mouse IP daily): dose-dependent decreases in IL-36-induced ear thickening; also recorded: ameliorates inflammatory swelling of IL-36α-injected ears

Reference: patent publication US11684606B2, “Methods of treating generalized pustular psoriasis with an antagonist of CCR6 or CXCR2” (CHEMOCENTRYX, INC., priority 2018, dated 2023)
